The record followed here is patent US20250135026A1, “Antibody Drug Conjugates” (BeiGene Switzerland GmbH, priority 2021, published 2025).

Like-named read-outs stand apart in the source and are kept apart here.

The nature of data set [1]: PAMPA. The settings on record: free payload. (In general: In PAMPA a lipid-coated filter parts donor from acceptor wells.)
Data set [2] concerns Calu-6. Description: Compounds cellular killing (Cell Titer-Glo, 6 days, 2D). In kind it is cell-based. The settings on record: Homo sapiens; for Emax: read-out: Emax. The procedure:
(§1) The cell line was grown in a humidified 5% CO2 atmosphere at 37° C., and was regularly tested for the presence of mycoplasma with MycoAlert™ PLUS Mycoplasma Detection Kit (Lonza, LT07-710).
(§2) Incubation at 37° C., 5% CO2, overnight.
(§3) Adding the fresh growth-medium containing the varying concentrations of compounds, 50 ul/well.
(§4) Incubation at 37° C., 5% CO2, 6 days.
(§5) The cell viability detected by Cell Titer-Glo (Promega, G7573). Add 70 µL/well of CellTiter-Glo® Reagent in each well.
(§6) Allow the plates to incubate at room temperature for 10 minutes to stabilize luminescent signal.
(§7) Analyze with Microplate Reader.
For orientation: In ATP-based viability assays light output follows the ATP content of the culture.

Data set [3] relates to A375. Described as above. In kind it is cell-based, human. The settings on record: Homo sapiens; for Emax: read-out: Emax. The procedure: as §1, §2, §3, §4, §5, §6, §7
A short description of data set [4]: in vitro. The settings on record: PAMPA.
Data set [5] deals with HCC1569. Nature of the data set: Payload cellular killing, 2D. It is filed as cell-based. The settings on record: Homo sapiens, HCC1569, 2D (HER3 +++); for Emax: read-out: Emax.
The subject of data set [6] is MDA-MB-453. Description: Payload cellular killing, 2D. In kind it is cell-based, human. The settings on record: Homo sapiens, MDA-MB-453, 2D (HER3 +++); for Emax: read-out: Emax. The procedure: as §1
Data set [7] deals with cathepsin B (Homo sapiens, UniProt P07858). Nature of the data set: Cathepsin B mediated rhodamine release. It is filed as biochemical. The settings on record: 150 nM, 0.3 unit activated cathepsin B, pH 5.5, 37° C., FIG. 21. On the procedure: CTSB was activated by incubation at ambient temperature for 15 min with 30 mM dithiothreitol and 15 mM EDTA at PH5.5.
Reaction buffer preparation: 25 mM sodium acetate & 1 mM EDTA, PH5.5.
Adding 150 nM NAcCys-13 & NAcCys-14 & NAcCys-15 & NAcCys-16 & NAcCys-17 and 0.3 unit activated cathepsin B mixture according to the experiment template.
The reaction mixtures were incubated at 37° C. immediately in the reader, then start reading using the kinetic set-up described. (TECAN SPARK: excitation/emission: 485/520 nm) (120 cycles, every one min) Gain Manual: 77%
Data analysis by GraphPad Prism 9 is illustrated in FIG. 21.

For data set [8], the system named is A549 (PTK7 low). Description: Cellular killing on PTK7 cell lines (Cell-Titer-Glo, 7 days). It is filed as cell-based. The settings on record: Anti-proliferation. On the procedure: (§8) The plates were incubated for 7 days at 37° C., 5% CO2. Next, 50 μL of Cell-Titer-Glo reagent was added to each well. The mixture was mixed on an orbital shaker for 10 mins to allow cell lysis. Then, the luminescent signal was measured using BMG PheraStar with the luminescent protocol. The inhibition of Ovcar3 and A549 cell lines is illustrated in FIG. 22 and FIG. 23, respectively.

Data set [9] relates to Ovcar3 (PTK7 high). The data set is described as above. It is filed as cell-based. The settings on record: Anti-proliferation. The procedure:
as §8

Data set [10] can be described thus: ADC hydrophobicity evaluation by HIC (retention time of DAR8 species). It is filed as physicochemical. The settings on record: HIC method with isopropanol in the mobile phase (values marked *, Method 1). From the text:
ADC Hydrophobicity Evaluation
ADC with more hydrophobic property would appeared with later retention time from HIC (hydrophobicity interaction column) chromatography. In this invention, […].
The HIC retention time (HIC RT, here only HIC RT of DAR8 species is listed in the table) can be seen as a measure to evaluate ADC's hydrophobicity.

Where [11] appears, read: Calu-6, Table 27, free payload, Calu-6, 2D (HER3 neg.).
[12] abbreviates: Calu-6, Table 28, payload, Calu-6, 2D (HER3 neg.).
[13] abbreviates: A-375, Table 27, free payload, A375, 2D (Her3 ++).
Where [14] appears, read: A-375, Table 28, payload, A375, 2D (Her3 ++).

For orientation: EC50 means the concentration that produces a half-maximal response. A higher EC50 goes with lower potency in that assay. Take `CC[C@@]1(O)C(=O)OCc2c1cc1n(c2=O)Cc2c-1nc1cc(F)c(C)c3c1c2[C@@H](NC(=O)CO)CC3` [DXd, reference compound]: the “PAMPA -Log Pe” value in data set [1] turned out to be 5.89. In addition, the Emax in [2] (Calu-6, Table 21, Calu-6) worked out at 98%; in data set [2] (setting [11]) it was 98%; in data set [2] (setting [12]) it was 98.6%; in data set [2] (Calu-6, […], Table 29, payload, Clau6, 6d, 2D (Her3 neg)), 98.8%; in [3] (A-375, Table 21, A375), 100%; in data set [3] (A-375, Table 29, payload, A375, 6d, 2D (Her3++)), 100%. The Emax worked out at 93.4% in data set [5] (HCC1569, Table 28, payload) and 98.7% in data set [6] (MDA-MB-453, Table 28, payload). Also, the concentration for a half-maximal effect (EC50) worked out at 1.2 nM in data set [2] (setting [12]); 2.8 nM in data set [3] (setting [13]); 3.2 nM in data set [3] (setting [14]); 2.7 nM in [3] (A-375, […], Table 29, payload, A375, 6d, 2D (Her3++)); 2.8 nM in data set [3] (A-375, Table 21, A375); 2.9 nM in [5] (HCC1569, Table 28, payload). In addition, a half-maximal response in data set [6] (MDA-MB-453, Table 28, payload) (EC50) required 1.9 nM. Besides, the recovery in [4] was found to be 95.2%.

On to `CC[C@@]1(O)C(=O)OCc2c1cc1n(c2=O)Cc2c-1nc1cc(F)c(C)c3c1c2[C@@H](N)CC3` [Exatecan, reference compound], for which the “PAMPA -Log Pe” value in [1] was found to be 5.75. The EC50 in data set [2] (setting [11]) was determined as 0.3 nM; in data set [2] (setting [12]), 0.2 nM; in [3] (setting [13]), 0.7 nM; in [3] (setting [14]), 0.9 nM; in data set [5] (Table 28, payload), 0.5 nM; in data set [6] (Table 28, payload), 0.5 nM. Further, the Emax in data set [2] (setting [11]) amounted to 96.2%; in data set [2] (setting [12]), 96.4%; in data set [3] (setting [13]), 99.9%; in [5] (HCC1569, Table 28, payload), 94.5%; in data set [6] (MDA-MB-453, Table 28, payload), 99.4%. For the same molecule, the recovery in data set [4] was 56%.

With `CCOC(=O)Nc1ccc2c(c1)Oc1cc(NC(=O)OCc3ccc(NC(=O)[C@H](CCCNC(N)=O)NC(=O)[C@@H](NC(=O)CCOCCOCCOCCN4C(=O)CC(SC[C@H](N)C(=O)O)C4=O)C(C)C)cc3)ccc1C21OC(=O)c2ccccc21` (some centres unmarked) [NAcCys-13, reference compound], in data set [7], the “cathepsin B mediated rhodamine release rate, rank” value is “NAcCys-15˜NAcCys-13 (benchmark)>NAcCys-14>NAcCys-17”.

For `CCOC(=O)Nc1ccc2c(c1)Oc1cc(NC(=O)OCc3ccc(NC(=O)[C@H](CCCNC(N)=O)NC(=O)[C@@H](NC(=O)[C@H](CNS(N)(=O)=O)NC(=O)CCOCCOCCOCCN4C(=O)CC(SC[C@H](NC(C)=O)C(=O)O)C4=O)C(C)C)cc3)ccc1C21OC(=O)c2ccccc21` (some centres unmarked) [NAcCys-14], in data set [7], the “cathepsin B mediated rhodamine release rate, rank” value was “NAcCys-15˜NAcCys-13 (benchmark)>NAcCys-14>NAcCys-17”.

As for `CCOC(=O)Nc1ccc2c(c1)Oc1cc(NC(=O)OCc3ccc(NC(=O)[C@H](CCCNC(N)=O)NC(=O)[C@@H](NC(=O)[C@H](CS(=O)(=O)O)NC(=O)CCOCCOCCOCCN4C(=O)CC(SC[C@H](NC(C)=O)C(=O)O)C4=O)C(C)C)cc3)ccc1C21OC(=O)c2ccccc21` (some centres unmarked) [NAcCys-15], the “cathepsin B mediated rhodamine release rate, rank” value in [7] is reported as “NAcCys-15˜NAcCys-13 (benchmark)>NAcCys-14>NAcCys-17”.

`CCOC(=O)Nc1ccc2c(c1)Oc1cc(NC(=O)OCc3ccc(NC(=O)[C@H](CCCNC(N)=O)NC(=O)[C@@H](NC(=O)[C@H](CP(=O)(O)O)NC(=O)CCOCCOCCOCCN4C(=O)CC(SC[C@H](NC(C)=O)C(=O)O)C4=O)C(C)C)cc3)ccc1C21OC(=O)c2ccccc21` (some centres unmarked) [NAcCys-17]: the “cathepsin B mediated rhodamine release rate, rank” value in [7] is “NAcCys-15˜NAcCys-13 (benchmark)>NAcCys-14>NAcCys-17”.

B1: ADC1-4: antibody: Cofetuzumab (conjugate, chains of the INN, looked up)
VH: QVQLVQSGPEVKKPGASVKVSCKASGYTFTDYAVHWVRQAPGKRLEWIGVISTYNDYTYNNQDFKGRVTMTRDTSASTAYMELSRLRSEDTAVYYCARGNSYFYALDYWGQGTSVTVSS
VL: EIVLTQSPATLSLSPGERATLSCRASESVDSYGKSFMHWYQQKPGQAPRLLIYRASNLESGIPARFSGSGSGTDFTLTISSLEPEDFAVYYCQQSNEDPWTFGGGTKLEIK
modifications: drug conjugate
notes: antibody: Cofetuzumab
What is called IC50 is the point on the concentration scale where inhibition reaches its midpoint. In data set [8], B1 yielded an Emax of 20.12% and a concentration for half-maximal inhibition (IC50) of more than 200 nM. Besides, in data set [9], the Emax was 93.45% and the IC50 was 0.32 nM. In addition, the “HIC DAR8 RT” value in data set [10] is reported as 14.50* min.

B2: ADC1-2: antibody: Cofetuzumab (conjugate, chains of the INN, looked up)
VH: B1 VH
VL: B1 VL
modifications: drug conjugate
notes: antibody: Cofetuzumab
B2: the Emax in data set [8] is 34.22%; in data set [9], 93.47%. In addition, the IC50 in [8] is more than 200 nM; in data set [9], 0.23 nM. For the same molecule, in [10], the “HIC DAR8 RT” value is 14.67* min.

B3: ADC1-1: antibody: Cofetuzumab; "ADC Compounds used references" (conjugate, chains of the INN, looked up)
VH: B1 VH
VL: B1 VL
modifications: drug conjugate
As for B3, in data set [8], the Emax is recorded as 38.87% and the IC50 is more than 200 nM. In data set [9], the Emax worked out at 95.76% and the 50% inhibitory concentration (IC50) was found to be 0.31 nM. In addition, the “HIC DAR8 RT” value in data set [10] was 14.56* min.

B4: ADC1-12: antibody: Cofetuzumab; "ADC Compounds used references" (conjugate, chains of the INN, looked up)
VH: B1 VH
VL: B1 VL
modifications: drug conjugate
In [8], B4 registered an Emax of 5.76% and an IC50 of more than 200 nM. Moreover, in [9], the Emax is recorded as 86.04% and the half-maximal inhibitory concentration (IC50) turned out to be 39.4 nM. Besides, the “HIC DAR8 RT” value in [10] is reported as 13.98* min.

B5: ADC1-11: antibody: Cofetuzumab (conjugate, chains of the INN, looked up)
VH: B1 VH
VL: B1 VL
modifications: drug conjugate
notes: antibody: Cofetuzumab
In data set [8], B5 registered an Emax of 26.44% and an IC50 of more than 200 nM. Further, in [9], the Emax stood at 100.9% and inhibition was half-maximal at 2.1 nM (IC50). Also, the “HIC DAR8 RT” value in [10] is on record as 14.77* min.
